For one compound, IC50 and EC50 results are on record in patent US20240238258A1, “INHIBITORS OF PROTEIN TYROSINE PHOSPHATASE, COMPOSITIONS, AND METHODS OF USE” (BRISTOL-MYERS SQUIBB COMPANY, priority 2022, published 2024).

In assay [1] the target is T1, human PTPN2 (Homo sapiens, UniProt P17706).
T1 sequence (P17706 1-415): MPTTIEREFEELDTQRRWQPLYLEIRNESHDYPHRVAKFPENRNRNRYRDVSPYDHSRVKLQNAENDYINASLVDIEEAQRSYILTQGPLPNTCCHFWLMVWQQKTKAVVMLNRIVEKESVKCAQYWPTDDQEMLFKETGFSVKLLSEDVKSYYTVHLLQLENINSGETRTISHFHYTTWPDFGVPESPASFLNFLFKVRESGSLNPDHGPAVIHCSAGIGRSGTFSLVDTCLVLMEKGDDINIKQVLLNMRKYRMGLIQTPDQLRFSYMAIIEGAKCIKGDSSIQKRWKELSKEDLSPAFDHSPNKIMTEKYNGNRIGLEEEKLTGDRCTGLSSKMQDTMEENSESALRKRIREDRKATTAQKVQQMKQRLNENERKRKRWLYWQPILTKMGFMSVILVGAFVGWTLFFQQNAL
The experiment in a line: PTPN2 BCHEM (PhosphoSens assay, substrate AQT0264). The note with it: PhosphoSens substrate AQT0264 20 μM, PTPN2 150 pM, room temperature. In kind it is biochemical. How it is done:
A PhosphoSens® kinase assay was performed as described by the vendor (AssayQuant Technologies, Marlborough, MA). Briefly, 1000× solutions of compounds were prepared in DMSO via serial dilution of the 10 mM DMSO stocks using 3-fold intervals in a 384-well reagent plate. 50 nL of the compound dilution series was then added to the corresponding wells of a 384-well assay plate. 40 mL of 1.25× substrate (AQT0264) in 1× assay buffer (50 mM HEPES pH 7.5, 500 μM EGTA, […] MgCl2, 0.01% Brij-35, 1% Glycerol, 1 mM DTT, and 0.2 mg/mL BSA) was transferred to each well of the assay plate to achieve a final substrate concentration of 20 μM. Finally, […] of 5× PTPN2 enzyme stock was added to each well of the assay plate for a final enzyme concentration of 150 pM. Reaction progress curves were collected by sampling fluorescence intensity at the excitation wavelength 360 nm (λex360) and emission wavelength 480 nm (λem480) every 71 seconds for one hour using a Synergy H4 plate reader (BioTek Instruments/Agilent Technologies, Winooski, VT) at room temperature.
(§1) For IC50 data, High DDT concentration and/or DiFMUP substrate assays were used; a skilled artisan may use either assay.

For the next assay, the system named is B16-F10 cells. The experiment in a line: Cell proliferation assay in B16-F10 cells with IFN-gamma (CellTiter-Glo). Format: cell-based. As to conditions: 120 h, mouse IFN-gamma 10 ng/mL, read-out: PTPN2 Prolif 5d B16F10 EC50. How it is done:
B16-F10 cells (ATCC, Manassas, VA, #CRL-6475) were cultured in DMEM growth medium (ThermoFisher Scientific, Waltham, MA, #11995-040) supplemented with 10% heat inactivated FBS (ThermoFisher Scientific, #16140-071) and 1% pen/strep (ThermoFisher Scientific, #15140-122). The cells were seeded into two white opaque 384-well tissue culture treated microplates (PerkinElmer, Waltham, MA, #6007688) at a density of 100 cells/well in 20 uL total volume and incubated overnight at 37 C and 5% CO2. 30 nL of compounds dissolved in DMSO were then transferred from a source plate into target wells with the Echo650 acoustic liquid handler (Beckman Coulter, Indianapolis, IN). Negative control wells received 30 nL of DMSO only (0.15% final concentration). Plates were returned to the incubator for 1 hour and then cells treated with either 5 uL of growth medium or 5 uL of growth medium containing 50 ng/ml of recombinant mouse IFN-gamma protein (R&D Systems, Minneapolis, MN, #485-MI/CF, 10 ng/mL final concentration) using the Assist automated pipetting platform (INTEGRA Biosciences, Hudson, NH). Plates were incubated at 37C for 4 days and cell proliferation assayed with the CellTiter-Glo reagent (Promega, Madison, WI, #G7573, 25 uL per well). […] Off-target compound mediated cytotoxicity was identified by checking for growth inhibition in the absence of IFNg.

For assay [2], the target named is T1, human PTPN2. The experiment in a line: Phosphatase activity assay using DiFMUP as substrate (PTPN2 BCHEM DIFMUP). In kind it is biochemical. On the set-up: purchased MilliporeSigma SRP5075. The note with it: human PTPN2 0.15 nM, 10 mM DTT, room temperature. On the procedure:
The PTPN2 biochemical assay was performed as follows, a 5× stock solution of human PTPN2 (SRP5075, MilliporeSigma, Burlington, MA) and a 1.25× stock solution of DiFMUP (D6567, ThermoFisher Scientific, Waltham, MA), were prepared in 1× reaction buffer consisting of 50 mM HEPES, pH 7.4, 1 mM EDTA, 150 mM NaCl, 0.2 mg/mL BSA, 100 U/mL catalase and 10 mM DTT. […] of the DiFMUP substrate solution, for a final concentration of […] DiFMUP substrate, was added to a Corning 3574 384-well, white, non-binding surface microtiter plate containing […] of serially diluted test compounds prepared in DMSO. The reactions were started with the addition of […] of the enzyme solution, for a final PTPN2 concentration of 0.15 nM, and monitored every 105 seconds for 60 minutes at λEX 360/λEM 460 in a BioTek Synergy HTX plate reader (Agilent Technologies, Santa Clara, CA) at room temperature. The initial linear portions of the progress curves were fit according to a linear equation to yield the slopes and converted to % inhibition based on a value of 100% activity for the no inhibitor treated control. IC50 values of each compound were obtained by fitting the % inhibition-compound concentration curves using Dotmatics software (Dotmatics, Bishops Stortford, Hertfordshire, England).
as §1

The test system of assay [3] is phosphorylated STAT1 in B16-F10 cells. Put plainly: Phospho-STAT1 (Tyr701) HTRF assay in B16-F10 cells with IFN-gamma. Format: cell-based. As to conditions: mouse IFN-gamma 100 ng/mL, 1 hour, read-out: pSTAT1 HTRF B16 EC50. How it is done:
B16-F10 cells (ATCC, Manassas, VA, #CRL-6475) were cultured in DMEM growth medium (ThermoFisher Scientific, Waltham, MA, #11995-040) supplemented with 10% heat inactivated FBS (ThermoFisher Scientific, #16140-071) and 1% pen/strep (ThermoFisher Scientific, #15140-122). The cells were seeded into a white opaque 384-well tissue culture treated microplate (PerkinElmer, Waltham, MA, #6007688) at a density of 10,000 cells/well in 20 uL total volume and incubated overnight at 37 C and 5% CO2. 30 nL of compounds dissolved in DMSO were then transferred from a source plate into target wells with the Echo650 acoustic liquid handler (Beckman Coulter, Indianapolis, IN). Negative control wells received 30 nL of DMSO only (0.15% final concentration). Plates were returned to the incubator for 1 hour and then cells treated with either 5 uL of growth medium or 5 uL of growth medium containing 500 ng/ml of recombinant mouse IFN-gamma protein (R&D Systems, Minneapolis, MN, #485-MI/CF, 100 ng/mL final concentration) using the Assist automated pipetting platform (INTEGRA Biosciences, Hudson, NH). Plates were incubated at 37 C for 1 hour and assayed for phosphorylated STAT1 protein levels with the phospho-STAT1 (Tyr701) HTRF kit (Cisbio, Bedford, MA, #63ADK026PEH) according to manufacturer's instructions. HTRF signal intensity was collected with the EnVision 2105 plate reader (PerkinElmer) 24 hours later and analyzed with the Dotmatics software platform to calculate compound IC50 values.

As for `Cc1cc(NCc2cc(O)c(N3CC(=O)NS3(=O)=O)c(F)c2)no1` [EXAMPLE 4, 5-(2-fluoro-6-hydroxy-4-(((5-methylisoxazol-3-yl)amino)methyl)phenyl)-1,2,5-thiadiazolidin-3-one 1,1-dioxide], the IC50 on human PTPN2 [1] worked out at 20 nM; at human PTPN2 [2], 30 nM. Also, the EC50 came out at 1030 nM in the assay on B16-F10 cells and 350 nM in assay [3].
